Data published in ChEMBL document CHEMBL3045001, “Synthesis and evaluation of analgesic, anti-inflammatory, and anticancer activities of new pyrazole-3(5)-carboxylic acid derivatives” (Med Chem Res, 2013).

How the values were obtained:
HeLa [1] = assay: Anticancer activity against Homo sapiens (human) HeLa cells assessed as cell viability at 50 uM after 24 hr by MTT assay (reference value: 100 +/-4.13%); format: functional; details: read-out: Activity
MDA-MB-231 [2] = assay: Anticancer activity against Homo sapiens (human) estrogen-independent MDA-MB-231 cells assessed as cell viability at 50 uM after 48 hr by MTT assay (reference value: 100 +/-3.71%); format: functional; details: MDA-MB-231, 48 h, read-out: Activity
Mus musculus [3] = species: Mus musculus; assay: Acute toxicity against Mus musculus Swiss albino (mouse) assessed as morbidity after 48 hr; format: organism-based; details: in vivo
Mus musculus [4] = species: Mus musculus; assay: Acute toxicity against Mus musculus Swiss albino (mouse) assessed as mortality after 48 hr; format: organism-based; details: in vivo
HeLa [5] = assay: Anticancer activity against Homo sapiens (human) HeLa cells assessed as inhibition of cell viability by MTT assay; format: functional, cell-based
HL-60 [6] = assay: Anticancer activity against Homo sapiens (human) HL60 cells assessed as cell viability at 50 uM after 48 hr by MTT assay (reference value: 100 +/-8.41%); format: functional; details: HL-60, 48 h, read-out: Activity
HL-60 [7] = assay: Anticancer activity against Homo sapiens (human) HL60 cells assessed as cell viability at 50 uM after 24 hr by MTT assay (reference value: 100 +/-3.55%); format: functional; details: HL-60, 24 h, read-out: Activity
MCF7 [8] = assay: Anticancer activity against Homo sapiens (human) MCF7 cells assessed as cell viability at 50 uM after 48 hr by MTT assay (100 +/-5.08%); format: functional; details: MCF7, 48 h, read-out: Activity
MCF7 [9] = assay: Anticancer activity against Homo sapiens (human) MCF7 cells assessed as cell viability at 50 uM after 24 hr by MTT assay (reference value: 100 +/-2.74%); format: functional; details: MCF7, 24 h, read-out: Activity
Raji [10] = assay: Anticancer activity against Homo sapiens (human) Raji cells assessed as cell viability at 50 uM after 48 hr by MTT assay (reference value: 100 +/-4.26%); format: functional; details: read-out: Activity
Raji [11] = assay: Anticancer activity against Homo sapiens (human) Raji cells assessed as cell viability at 50 uM after 24 hr by MTT assay (reference value: 100 +/-5.02%); format: functional; details: read-out: Activity
HeLa [12] = assay: Anticancer activity against Homo sapiens (human) HeLa cells assessed as cell viability at 50 uM after 48 hr by MTT assay (reference value: 100 +/-3.8%); format: functional; details: read-out: Activity
MDA-MB-231 [13] = assay: Anticancer activity against Homo sapiens (human) estrogen-independent MDA-MB-231 cells assessed as cell viability at 50 uM after 24 hr by MTT assay (reference value: 100 +/-7.08%); format: functional; details: MDA-MB-231, 24 h, read-out: Activity
Mus musculus [14] = assay: Anti-inflammatory activity in carrageenan-induced Mus musculus Swiss albino (mouse) paw edema model assessed as paw swelling at 100 mg/kg, sc administered 30 min prior to carrageenan injection measured after 270 min (rvb = 75.0 +/-3.0 x10'-2 mm); format: functional; details: route subcutaneous
Mus musculus [15] = assay: Anti-inflammatory activity in carrageenan-induced Mus musculus Swiss albino (mouse) paw edema model assessed as inhibition of paw edema at 100 mg/kg, sc administered 30 min prior to carrageenan injection measured after 360 min; format: functional; details: route subcutaneous
Mus musculus [16] = assay: Anti-inflammatory activity in carrageenan-induced Mus musculus Swiss albino (mouse) paw edema model assessed as inhibition of paw edema at 100 mg/kg, sc administered 30 min prior to carrageenan injection measured after 270 min; format: functional; details: route subcutaneous
Mus musculus [17] = assay: Anti-inflammatory activity in carrageenan-induced Mus musculus Swiss albino (mouse) paw edema model assessed as inhibition of paw edema at 100 mg/kg, sc administered 30 min prior to carrageenan injection measured after 180 min; format: functional; details: route subcutaneous
Mus musculus [18] = assay: Anti-inflammatory activity in carrageenan-induced Mus musculus Swiss albino (mouse) paw edema model assessed as inhibition of paw edema at 100 mg/kg, sc administered 30 min prior to carrageenan injection measured after 90 min; format: functional; details: route subcutaneous
Mus musculus [19] = assay: Anti-inflammatory activity in carrageenan-induced Mus musculus Swiss albino (mouse) paw edema model assessed as paw swelling at 100 mg/kg, sc administered 30 min prior to carrageenan injection measured after 360 min (reference value: 77.0 +/-3.0 x10'-2 mm); format: functional; details: route subcutaneous
Mus musculus [20] = assay: Anti-inflammatory activity in carrageenan-induced Mus musculus Swiss albino (mouse) paw edema model assessed as paw swelling at 100 mg/kg, sc administered 30 min prior to carrageenan injection measured after 180 min (reference value: 51.0 +/-3.0 x10'-2 mm); format: functional; details: route subcutaneous
Mus musculus [21] = assay: Anti-inflammatory activity in carrageenan-induced Mus musculus Swiss albino (mouse) paw edema model assessed as paw swelling at 100 mg/kg, sc administered 30 min prior to carrageenan injection measured after 90 min (reference value: 38.0 +/-2.0 x10'-2 mm); format: functional; details: route subcutaneous
Mus musculus [22] = assay: Analgesic activity in Mus musculus Swiss albino (mouse) assessed as inhibition of p-benzoquinone-induced abdominal writhing at 100 mg/kg, sc administered 30 min prior to PBQ injection measured after 5 min for 15 min; format: functional, Abdomen; parameters: scale not given: the % may be the effect or the level left; details: route subcutaneous
HL-60 [23] = assay: Anticancer activity against Homo sapiens (human) HL60 cells assessed as inhibition of cell viability by MTT assay; format: functional, cell-based
Mus musculus [24] = assay: Anti-inflammatory activity in carrageenan-induced Mus musculus Swiss albino (mouse) paw edema model assessed as inhibition of paw edema at 10 mg/kg, sc administered 30 min prior to carrageenan injection measured after 360 min; format: functional; details: route subcutaneous
Mus musculus [25] = assay: Anti-inflammatory activity in carrageenan-induced Mus musculus Swiss albino (mouse) paw edema model assessed as inhibition of paw edema at 10 mg/kg, sc administered 30 min prior to carrageenan injection measured after 270 min; format: functional; details: route subcutaneous
Mus musculus [26] = assay: Anti-inflammatory activity in carrageenan-induced Mus musculus Swiss albino (mouse) paw edema model assessed as inhibition of paw edema at 10 mg/kg, sc administered 30 min prior to carrageenan injection measured after 180 min; format: functional; details: route subcutaneous
Mus musculus [27] = assay: Anti-inflammatory activity in carrageenan-induced Mus musculus Swiss albino (mouse) paw edema model assessed as inhibition of paw edema at 10 mg/kg, sc administered 30 min prior to carrageenan injection measured after 90 min; format: functional; details: route subcutaneous
Mus musculus [28] = assay: Anti-inflammatory activity in carrageenan-induced Mus musculus Swiss albino (mouse) paw edema model assessed as paw swelling at 10 mg/kg, sc administered 30 min prior to carrageenan injection measured after 360 min (reference value: 77.0 +/-3.0 x10'-2 mm); format: functional; details: route subcutaneous
Mus musculus [29] = assay: Anti-inflammatory activity in carrageenan-induced Mus musculus Swiss albino (mouse) paw edema model assessed as paw swelling at 10 mg/kg, sc administered 30 min prior to carrageenan injection measured after 270 min (reference value: 75.0 +/-3.0 x10'-2 mm); format: functional; details: route subcutaneous
Mus musculus [30] = assay: Anti-inflammatory activity in carrageenan-induced Mus musculus Swiss albino (mouse) paw edema model assessed as paw swelling at 10 mg/kg, sc administered 30 min prior to carrageenan injection measured after 180 min (reference value: 51.0 +/-3.0 x10'-2 mm); format: functional; details: route subcutaneous
Mus musculus [31] = assay: Anti-inflammatory activity in carrageenan-induced Mus musculus Swiss albino (mouse) paw edema model assessed as paw swelling at 10 mg/kg, sc administered 30 min prior to carrageenan injection measured after 90 min (reference value: 38.0 +/-2.0 x10'-2 mm); format: functional; details: route subcutaneous

Row | SMILES | viability at 50 µM (HeLa [1]) | viability at 50 µM (MDA-MB-231 [2]) | Activity (Mus musculus [3]) | Activity (Mus musculus [4]) | viability at 50 µM (HL-60 [6]) | viability at 50 µM (HL-60 [7]) | viability at 50 µM (MCF7 [8]) | viability at 50 µM (MCF7 [9]) | viability at 50 µM (Raji [10]) | viability at 50 µM (Raji [11]) | viability at 50 µM (HeLa [12]) | viability at 50 µM (MDA-MB-231 [13]) | Activity (Mus musculus [14]) | inhibition in vivo at 100 mg/kg (Mus musculus [15]) | inhibition in vivo at 100 mg/kg (Mus musculus [16]) | inhibition in vivo at 100 mg/kg (Mus musculus [17]) | inhibition in vivo at 100 mg/kg (Mus musculus [18]) | Activity (Mus musculus [19]) | Activity (Mus musculus [20]) | Activity (Mus musculus [21]) | other results
1 | Cc1ccc(-c2cc(C(=O)Oc3ccc(-n4ccnc4)cc3)n(Cc3ccccc3)n2)cc1 | 36.7% | 24.4% | Non-toxic | Non-toxic | 121% | 108% | 52.4% | 67.6% | 106% | 96.5% | 33.9% | 33.1% | 61.6 ×10⁻² mm | 18.8% | 19.2% | 15.4% | 6.6% | 62 ×10⁻² mm | 43 ×10⁻² mm | 35 ×10⁻² mm | IC50 (HeLa [5]): 30.4 µM; Activity (Mus musculus [22]): 14.9%
2 | Cc1ccc(-c2cc(C(=O)N3CCN(Cc4ccc(C(C)C)cc4)CC3)nn2Cc2ccccc2)cc1 | 52.5% | 41.1% | Non-toxic | Non-toxic | 15.5% | 11.9% | 56.7% | 51.4% | 29.6% | 44.4% | 34.5% | 67.2% | 31 ×10⁻² mm | 63.4% | 58.9% | 46.3% | 8.9% | 28 ×10⁻² mm | 28 ×10⁻² mm | 34 ×10⁻² mm | IC50 (HL-60 [23]): 24.4 µM; IC50 (HeLa [5]): 30.5 µM; Activity (Mus musculus [22]): 59.2%
3 | CCOC(=O)C1CCN(C(=O)c2cc(-c3ccc(C)cc3)nn2Cc2ccccc2)CC1 | 53.5% | 64% | Non-toxic | Non-toxic | 91.7% | 102% | 88.2% | 54.2% | 97.3% | 77% | 49.9% | 96.5% | 34 ×10⁻² mm | 57.6% | 54.4% | 33.3% | 26.7% | 33 ×10⁻² mm | 34 ×10⁻² mm | 28 ×10⁻² mm | Activity (Mus musculus [22]): 77%
4 | COc1ccc2c(c1)c(CC(=O)O)c(C)n2C(=O)c1ccc(Cl)cc1 [INDOMETHACIN] | – | – | – | – | – | – | – | – | – | – | – | – | – | – | – | – | – | – | – | – | inhibition in vivo at 10 mg/kg (Mus musculus [24]): 45.7%; inhibition in vivo at 10 mg/kg (Mus musculus [25]): 45.6%; inhibition in vivo at 10 mg/kg (Mus musculus [26]): 31.7%; inhibition in vivo at 10 mg/kg (Mus musculus [27]): 15.5%; Activity (Mus musculus [28]): 42 ×10⁻² mm; Activity (Mus musculus [29]): 41 ×10⁻² mm; Activity (Mus musculus [30]): 35 ×10⁻² mm; Activity (Mus musculus [31]): 32 ×10⁻² mm
